Laboratory results from article PMC9299836 (eLife, 2022).
“And” between values parts separate entries of the source, which are not always exact repeats. Equal entries are not always repeated.

Tests used:
mGluR2 [1] = molecular target: T1, mGluR2 (Mus musculus, UniProt Q14BI2); assay: Functional calcium imaging, SNAP-mGluR2 (no FLAG-tag) with chimeric G protein Gqo5 in HEK293T cells; format: cell-based; set-up: Full length mGluR2 construct with an amber codon (TAG) mutation of amino acid A548 (azi-CRD) or N-terminal SNAP-tag (SNAP-mGluR2); host or cells: HEK293T; conditions: for Intracellular Ca2+ Response (normalized to 1mM glutamate), Mean: Glutamate + 15nM MNI-137
T1 sequence (Q14BI2 19-872): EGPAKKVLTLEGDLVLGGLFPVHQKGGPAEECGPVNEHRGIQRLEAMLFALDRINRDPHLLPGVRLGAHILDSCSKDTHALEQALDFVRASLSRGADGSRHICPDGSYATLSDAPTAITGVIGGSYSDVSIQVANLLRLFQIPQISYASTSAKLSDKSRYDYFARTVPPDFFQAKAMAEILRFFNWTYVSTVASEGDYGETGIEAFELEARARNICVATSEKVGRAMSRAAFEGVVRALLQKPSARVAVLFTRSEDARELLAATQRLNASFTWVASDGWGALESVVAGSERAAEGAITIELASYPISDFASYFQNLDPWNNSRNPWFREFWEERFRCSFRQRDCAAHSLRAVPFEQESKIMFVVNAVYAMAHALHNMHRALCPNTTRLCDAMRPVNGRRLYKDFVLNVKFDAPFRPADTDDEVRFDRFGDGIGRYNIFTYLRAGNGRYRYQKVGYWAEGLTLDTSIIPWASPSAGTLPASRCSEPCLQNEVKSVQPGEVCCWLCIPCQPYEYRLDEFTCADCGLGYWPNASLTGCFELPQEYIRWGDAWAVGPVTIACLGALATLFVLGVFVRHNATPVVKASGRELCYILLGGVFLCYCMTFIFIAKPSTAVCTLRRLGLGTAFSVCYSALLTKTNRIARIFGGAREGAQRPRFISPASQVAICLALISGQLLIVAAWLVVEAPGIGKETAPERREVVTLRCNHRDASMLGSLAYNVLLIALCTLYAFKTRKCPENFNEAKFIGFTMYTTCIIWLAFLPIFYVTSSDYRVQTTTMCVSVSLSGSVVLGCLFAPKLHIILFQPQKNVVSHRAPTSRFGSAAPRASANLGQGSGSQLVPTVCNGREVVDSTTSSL

mGluR2 [2] = molecular target: mGluR2 (Mus musculus, UniProt Q14BI2, INS715F); assay: Live-cell FRET, azi-ECL2 (7TM domain, extracellular loop 2) sensor in HEK293T cells; conditions: for Mean normalized azi-ECL2 FRET response: glutamate + 10μM modulator, maximal response normalized to 1mM glutamate;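 for all read-outs here: Cy3/Cy5 click-labeled sensor, whole-membrane ROIs per cell, apparent FRET after bleed-through correction, ΔFRET as treatment minus pre-treatment signal, at room temperature, at least three biological replicates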
Chain of mGluR2 (Mus musculus, UniProt Q14BI2, INS715F) (Q14BI2 with tags, fused parts or gaps INS715F): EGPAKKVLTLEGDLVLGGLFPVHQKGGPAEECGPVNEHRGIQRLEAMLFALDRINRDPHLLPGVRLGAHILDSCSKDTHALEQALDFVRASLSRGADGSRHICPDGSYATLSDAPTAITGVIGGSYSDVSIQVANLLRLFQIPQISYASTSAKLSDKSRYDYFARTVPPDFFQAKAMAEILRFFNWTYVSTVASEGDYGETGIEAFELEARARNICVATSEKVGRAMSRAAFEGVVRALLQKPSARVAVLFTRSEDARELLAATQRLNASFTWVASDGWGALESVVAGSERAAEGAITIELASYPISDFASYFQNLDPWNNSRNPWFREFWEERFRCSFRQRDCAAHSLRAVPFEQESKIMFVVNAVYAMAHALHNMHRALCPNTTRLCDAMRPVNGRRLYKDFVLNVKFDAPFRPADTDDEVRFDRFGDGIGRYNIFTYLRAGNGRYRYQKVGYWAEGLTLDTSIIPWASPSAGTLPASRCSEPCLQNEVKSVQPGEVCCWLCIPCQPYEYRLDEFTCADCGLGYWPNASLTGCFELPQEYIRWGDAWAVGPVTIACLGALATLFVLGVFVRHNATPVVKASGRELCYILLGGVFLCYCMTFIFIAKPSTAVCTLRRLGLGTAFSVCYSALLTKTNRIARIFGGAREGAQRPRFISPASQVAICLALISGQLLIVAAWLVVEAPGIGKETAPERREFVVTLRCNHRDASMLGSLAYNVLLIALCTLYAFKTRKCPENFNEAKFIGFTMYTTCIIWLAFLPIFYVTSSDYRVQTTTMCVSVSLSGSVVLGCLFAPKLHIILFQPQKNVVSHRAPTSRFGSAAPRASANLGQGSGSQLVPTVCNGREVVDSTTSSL

mGluR2 [3] = molecular target: T1, mGluR2; assay: Live-cell FRET, SNAP-m2 (VFT domain) inter-subunit sensor in HEK293T cells; conditions: for Mean normalized FRET response, SNAP-m2 NAM DRC: glutamate + 10μM modulator, maximal response normalized to 1mM glutamate;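 for all read-outs here: apparent FRET efficiency from whole-membrane ROIs of single cells, corrected for donor bleed-through and background, ΔFRET as treatment minus pretreatment signal, recorded at room temperature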
mGluR2 [4] = molecular target: mGluR2 (Mus musculus, UniProt Q14BI2, A548F); assay: Live-cell FRET, azi-CRD (cysteine-rich domain) sensor in HEK293T cells; conditions: for azi-CRD normalized FRET response, Mean / azi-CRD normalized FRET response, individual cell: Glutamate + 10μM modulator (NAM); for azi-CRD normalized FRET response, Mean: maximal response normalized to 1mM glutamate; for azi-CRD normalized FRET response, individual cell: single-cell replicate
Chain of mGluR2 (Mus musculus, UniProt Q14BI2, A548F) (Q14BI2 19-872 A548F): as the sequence (Q14BI2 19-872) above, with A530F counted along it

[5] = 10μM MNI-137, ([1 mM glutamate + modulator] - [1 mM glutamate]) × 100

Effect on receptor activation (calcium imaging) in the presence of glutamate (mGluR2 [1]; 10 μM NAM): block receptor activation | Intracellular Ca2+ Response, % 1mM Glutamate (mGluR2 [1]; 1mM Glutamate + 15nM MNI-137, individual experiments): 73.406% and 76.302% and 82.093% | Mean ΔEfficacy of glutamate (mGluR2 [1]; Ca2+ response, 1 mM glutamate + 15 nM modulator, ([1 mM glutamate + modulator] - [1 mM glutamate]) × 100): -22.7329 | ΔEfficacy of glutamate, individual experiments (mGluR2 [1]; Ca2+ response, 1 mM glutamate + 15 nM modulator, single replicate): -23.6976 and -17.9069 and -26.5942 | Mean ΔPotency of glutamate (mGluR2 [1]; Ca2+ response, glutamate + 15 nM modulator, (([modulator + glutamate]EC50 – [glutamate]EC50)/[glutamate]EC50) × 100): 30.7718 | ΔPotency of glutamate, individual experiments (mGluR2 [1]; Ca2+ response, glutamate + 15 nM modulator, single replicate): 55.4467 and 26.9701 and 9.898 | Intracellular Ca2+ Response (normalized to 1mM glutamate), Mean (mGluR2 [1]; log[Glutamate] (M) -3): 0.7727 | Intracellular Ca2+ Response (normalized to 1mM glutamate), Mean (mGluR2 [1]; log[Glutamate] (M) -3.60206): 0.7226 | Intracellular Ca2+ Response (normalized to 1mM glutamate), Mean (mGluR2 [1]; log[Glutamate] (M) -4.1549): 0.6149 | Intracellular Ca2+ Response (normalized to 1mM glutamate), Mean (mGluR2 [1]; log[Glutamate] (M) -4.52288): 0.4711 | Intracellular Ca2+ Response (normalized to 1mM glutamate), Mean (mGluR2 [1]; log[Glutamate] (M) -5): 0.2107 | Intracellular Ca2+ Response (normalized to 1mM glutamate), Mean (mGluR2 [1]; log[Glutamate] (M) -5.39794): 0.08277 | Intracellular Ca2+ Response (normalized to 1mM glutamate), Mean (mGluR2 [1]; log[Glutamate] (M) -5.82391): 0.01181 | Intracellular Ca2+ Response (normalized to 1mM glutamate), Mean (mGluR2 [1]; log[Glutamate] (M) -6.52288): 0 | Intracellular Ca2+ Response (normalized to 1mM glutamate), Mean (mGluR2 [1]; log[Glutamate] (M) -7): 0 | azi-ECL2 - ΔEfficacy, Mean ΔEfficacy (mGluR2 [2]; [5]): -22.0861 | Mean ΔPotency (mGluR2 [2]; 10μM modulator, (([modulator + glutamate]EC50 – [glutamate] EC50)/[glutamate] EC50) × 100): 179.936 | Mean max response (normalized max ΔFRET) (mGluR2 [2]; azi-ECL2, 1 mM glutamate + 10 μM modulator, normalized to 1 mM glutamate): 0.78 | Hill slope of glutamate titration (mGluR2 [2]; azi-ECL2 sensor, + 10 μM modulator): 1.32 | Mean normalized azi-ECL2 FRET response (mGluR2 [2]; log[Glutamate] (M) -3): 0.7791 | Mean normalized azi-ECL2 FRET response (mGluR2 [2]; log[Glutamate] (M) -4.1549): 0.6793 | Mean normalized azi-ECL2 FRET response (mGluR2 [2]; log[Glutamate] (M) -4.52288): 0.5808 | Mean normalized azi-ECL2 FRET response (mGluR2 [2]; log[Glutamate] (M) -5): 0.314 | Mean normalized azi-ECL2 FRET response (mGluR2 [2]; log[Glutamate] (M) -5.82391): 0.01822 | Mean normalized azi-ECL2 FRET response (mGluR2 [2]; log[Glutamate] (M) -6.52288): 0 | Mean normalized azi-ECL2 FRET response (mGluR2 [2]; log[Glutamate] (M) -7): 0 | Mean normalized azi-ECL2 FRET response (mGluR2 [2]; log[Glutamate] (M) -7.69897): 0 | Mean normalized azi-ECL2 FRET response (mGluR2 [2]; log[Glutamate] (M) -4.69897): 0.4672 | SNAP-m2 - ΔEfficacy, Mean ΔEfficacy (mGluR2 [3]; [5]): -14.5253 | Mean max response (normalized max ΔFRET) (mGluR2 [3]; SNAP-m2, 1 mM glutamate + 10 μM modulator, normalized to 1 mM glutamate): 0.85 | Mean ΔPotency (mGluR2 [3]; SNAP-m2, 10μM modulator, (([modulator + glutamate]EC50 – [glutamate] EC50)/[glutamate] EC50) × 100): 44.8085 | Mean ΔEfficacy (mGluR2 [3]; SNAP-m2, 10μM modulator, ([1 mM glutamate + modulator] - [1 mM glutamate]) × 100): -14.5253 | Hill slope of glutamate titration (mGluR2 [3]; SNAP-m2 sensor, + 10 μM modulator): –1.61 | Mean normalized FRET response, SNAP-m2 NAM DRC (mGluR2 [3]; log[Glutamate] (M) -3): -0.8548 | Mean normalized FRET response, SNAP-m2 NAM DRC (mGluR2 [3]; log[Glutamate] (M) -4.1549): -0.777 | Mean normalized FRET response, SNAP-m2 NAM DRC (mGluR2 [3]; log[Glutamate] (M) -4.52288): -0.6231 | Mean normalized FRET response, SNAP-m2 NAM DRC (mGluR2 [3]; log[Glutamate] (M) -5): -0.2568 | Mean normalized FRET response, SNAP-m2 NAM DRC (mGluR2 [3]; log[Glutamate] (M) -5.82391): -0.04212 | Mean normalized FRET response, SNAP-m2 NAM DRC (mGluR2 [3]; log[Glutamate] (M) -6.52288): 0 | Mean normalized FRET response, SNAP-m2 NAM DRC (mGluR2 [3]; log[Glutamate] (M) -7): 0 | Mean normalized FRET response, SNAP-m2 NAM DRC (mGluR2 [3]; log[Glutamate] (M) -7.69897): 0 | Mean normalized FRET response, SNAP-m2 NAM DRC (mGluR2 [3]; log[Glutamate] (M) -4.69897): -0.4828 | azi-CRD - ΔEfficacy, Mean ΔEfficacy (mGluR2 [4]; [5]): -14.0141 | azi-CRD normalized FRET response, Mean (mGluR2 [4]; log[Glutamate] (M) -3): 0.8599 | azi-CRD normalized FRET response, Mean (mGluR2 [4]; log[Glutamate] (M) -4.52288): 0.6022 | azi-CRD normalized FRET response, Mean (mGluR2 [4]; log[Glutamate] (M) -5): 0.3809 | azi-CRD normalized FRET response, Mean (mGluR2 [4]; log[Glutamate] (M) -5.39794): 0.1786 | azi-CRD normalized FRET response, Mean (mGluR2 [4]; log[Glutamate] (M) -5.82391): 0.06813 | azi-CRD normalized FRET response, Mean (mGluR2 [4]; log[Glutamate] (M) -6.52288): 0.03124 | azi-CRD normalized FRET response, Mean (mGluR2 [4]; log[Glutamate] (M) -7): 0 | azi-CRD normalized FRET response, individual cell (mGluR2 [4]; log[Glutamate] (M) -7): 0 | Hill slope of glutamate titration (mGluR2 [4]; azi-CRD sensor, + 10 μM modulator): 1.10 | Mean max response (normalized max ΔFRET) (mGluR2 [4]; azi-CRD, 1 mM glutamate + 10 μM modulator, normalized to 1 mM glutamate): 0.86 | Mean ΔPotency (mGluR2 [4]; azi-CRD, 10μM modulator, (([modulator + glutamate]EC50 – [glutamate] EC50)/[glutamate] EC50) × 100): 19.3799
Substance: MNI-137
ΔPotency, individual cell responses (mGluR2 [2]; 10μM modulator, single cells, (([modulator + glutamate]EC50 – [glutamate] EC50)/[glutamate] EC50) × 100): 208.526 and 269.842 and 265.754 and 289.307 and 19.9066 and 99.1307 and 118.401 and 168.622 | SNAP-m2 - ΔEfficacy, individual cell responses (mGluR2 [3]; 10μM MNI-137, single cells): -10.7213 and -26.7573 and -13.8479 and -17.3754 and -14.1858 and -21.1325 and -12.0197 and -12.3419 and -6.834 and -6.212 and -2.3686 and -0.3026 and -3.79 and -23.2696 and -18.431 and -18.5097 and -23.731 and -16.2088 and -24.4772 and -17.7281 and -7.524 and -21.7885 | Live-cell FRET max response normalized to 1mM glutamate (mGluR2 [3]; SNAP-m2 sensor, Glutamate + 10μM MNI-137, individual values (N=22)): 0.8581 and 0.7887 and 0.8798 and 0.8766 and 0.9317 and 0.9379 and 0.9763 and 0.997 and 0.9621 and 0.7673 and 0.8157 and 0.8149 and 0.7627 and 0.8379 and 0.7552 and 0.8227 and 0.9248 and 0.7821 and 0.8928 and 0.7324 and 0.8615 and 0.8263 | azi-CRD - ΔEfficacy, individual cell responses (mGluR2 [4]; 10μM MNI-137, single cells): -19.4456 and -7.384 and -10.1516 and 1.621 and -9.317 and -10.1717 and -14.3919 and -15.5722 and -14.8125 and -10.0435 and -13.9489 and -17.5047 and -9.853 and -8.072 and -15.0625 and -34.4877 and -19.6812 and -23.9757 | azi-CRD normalized FRET response, individual cell (mGluR2 [4]; log[Glutamate] (M) -5.39794): 0.1624 and 0.1634 and 0.1646 and 0.1674 and 0.1243 and 0.1237 and 0.1526 and 0.2062 and 0.1399 and 0.1742 and 0.1692 and 0.2509 and 0.1433 and 0.1979 and 0.2166 and 0.2171 and 0.2594 and 0.1653 and 0.2159 and 0.1911 and 0.1708 and 0.1695 and 0.153 | azi-CRD normalized FRET response, individual cell (mGluR2 [4]; log[Glutamate] (M) -5.82391): 0.04445 and 0.05893 and 0.04553 and 0.06348 and 0.04636 and 0.04299 and 0.07924 and 0.06124 and 0.04784 and 0.04123 and 0.06211 and 0.06632 and 0.1186 and 0.05696 and 0.08797 and 0.1273 and 0.06713 and 0.0889 and 0.0871 and 0.09832 and 0.05971 and 0.05629 and 0.07113 and 0.07112 and 0.06208 and 0.06258 and 0.06477 | azi-CRD normalized FRET response, individual cell (mGluR2 [4]; log[Glutamate] (M) -6.52288): 0.0188 and 0.01987 and 0.01609 and 0.02693 and 0.05479 and 0.05033 and 0.00719 and 0.0225 and 0.06219 and 0.01914 and 0.02051 and 0.02647 and 0.05278 and 0.03127 (2×) and 0.02714 and 0.04081 and 0.0402 and 0.04434 and 0.02897 and 0.03138 and 0.03664 and 0.02295 | Live-cell FRET max response normalized to 1mM glutamate (mGluR2 [4]; azi-CRD sensor, Glutamate + 10μM MNI-137, individual values (N=18)): 0.9068 and 0.8983 and 0.8561 and 0.8443 and 0.8519 and 0.8996 and 0.8605 and 0.8249 and 0.9015 and 0.9193 and 0.8494 and 0.6551 and 0.8032 and 0.7602 and 0.8055 and 0.9262 and 0.8985 and 1.016 | ΔPotency, individual cell (mGluR2 [4]; azi-CRD, 10μM modulator, calculated from individual cell responses): 8.099 and 2.046 and -1.414 and 21.9358 and 9.829 and 20.2062 and 22.8006 and -4.008 and 2.91 and 8.964 and 24.5302 and 18.4766 and 6.37 and 10.6935 and 59.9867 and 17.6119 and -18.5365 and 122.252 and 0.316 and -3.143 and -10.9263 and 95.4432 and 15.0175
